Laboratory results as given in patent US6461997B1, “Triazole sulfones having herbicidal activity” (Monsanto Technology LLC, priority 1999, dated 2002).

Assays:
DATST (jimsonweed) = assay: Pre-plant incorporated (PPI) herbicidal activity, warm season; format: in vivo, Datura stramonium; conditions: for Percent inhibition DATST: PPI application; for PPI activity (GR80) DATST: pre-plant incorporated, GR80 = lowest tested rate with 80% or greater inhibition, approx. 14 days after treating, 30/21° C.
Procedure: (§1) In another set of tests, the pre-plant incorporated (PPI) activity of compounds of this invention was evaluated on the same species as for the pre-emergence tests described above. In the PPI tests the following procedure, designed to simulate PPI application, was used.
(§2) A pre-prepared topsoil mixture (described above) was placed in a pot and compacted to a depth of 1.0 to 1.25 cm from the top of the pot. Seeds of each of several monocotyledonous and dicotyledonous annual plant species were placed on top of the soil. A sufficient quantity of soil to cover the seeds and level fill the pot was weighed into an open container. A known amount of the test compound was dissolved or suspended in an organic solvent and applied by spraying to this cover soil. The cover soil was thoroughly mixed to distribute the test compound throughout the cover soil, and was then applied as a cover layer over the seeds. Untreated soil was used as a cover layer for control pots. After treatment the plants were placed in a greenhouse where they received 0.64 cm of overhead irrigation. All subsequent watering consisted of a light overhead mist and/or subirrigation as needed for germination and growth. Tables 9 and 10 below relate to warm season plant species which were placed after pre-emergence treatment in a greenhouse with a 30/21° C. day/night temperature regime. Tables 11 and 12 below relates to cool season plant species placed after pre-emergence treatment in a greenhouse or growth chamber with an 18/13° C. day/night temperature regime. Only the compounds of Examples 1, 6, 8, 11, 13 and 15-20 were included in PPI tests.
(§3) Approximately 14 days after planting and treating, the plants were observed and herbicidal efficacy recorded as percent inhibition by comparison with untreated plants.

[1] = tested on: GALAP (catchweed bedstraw); assay: Pre-plant incorporated (PPI) herbicidal activity, cool season; format: in vivo, Galium aparine; conditions: for Percent inhibition GALAP: weed, PPI application; for PPI activity GR80, GALAP: pre-plant incorporated, lowest tested rate with 80% or greater inhibition, about 14 days
Procedure: as §1, §2, §3

LOLMG (annual ryegrass) = assay: as above; format: in vivo, Lolium multiflorum; conditions: for Percent inhibition LOLMG: weed, PPI application; for PPI activity GR80, LOLMG: pre-plant incorporated, lowest tested rate with 80% or greater inhibition, about 14 days
Procedure: as §1, §2, §3

[2] = tested on: AEGCY (jointed goatgrass); assay: as above; format: in vivo, Aegilops cylindrica; conditions: for Percent inhibition AEGCY: weed, PPI application; for PPI activity GR80, AEGCY: pre-plant incorporated, lowest tested rate with 80% or greater inhibition, about 14 days
Procedure: as §1, §2, §3

[3] = tested on: AGSST (creeping bentgrass); assay: Post-emergence herbicidal activity, cool season; format: in vivo, Agrostis stolonifera; conditions: abraded plants sprayed at 300, 100, 30 and 10 g/ha; about 14 days after treatment
Method in brief: (§4)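 Greenhouse test on sand-abraded seedlings sprayed 9 to 14 days after planting at 300, 100, 30 and 10 g/ha; GR80 from percent inhibition versus controls at approximately 14 days.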

[4] = tested on: AGRRE (quackgrass (seedling)); assay: Post-emergence herbicidal activity, cool season; format: in vivo, Elymus repens; conditions: abraded plants sprayed at 300, 100, 30 and 10 g/ha; about 14 days after treatment
Method in brief: as §4

barley (HORVX) = assay: Selectivity test, PPI, cool season crop; format: in vivo, Hordeunm vulgare; conditions: PPI application
Procedure: as §2, §3
Additional pre-emergence and PPI tests were conducted by the procedures described above, on warm and cool season weed species in the presence of crop species, to assess herbicidal selectivity. Crop species included in warm season tests were corn (Zea mays, ZEAMX), rice (Oryza sativa, ORYSA) and soybean (Glycine max, GLYMX). Crop species included in cool season tests were wheat (Triticum aestivum, TRZAW), barley (Hordeunm vulgare, HORVX) and oilseed rape (Brassica napus, BRSNS).
Tables 15 and 16 relate to pre-emergence and PPI tests respectively on warm season species. Table 17 relates to pre-emergence tests on cool season species.

CCN(CC)C(=O)n1cnc(S(=O)(=O)C(F)(F)SC)n1 [Example 9]
Percent inhibition DATST (DATST (jimsonweed); 30 g/ha): 0% | Percent inhibition DATST (DATST (jimsonweed); 100 g/ha): 0% | Percent inhibition DATST (DATST (jimsonweed); 300 g/ha): 80% | Percent inhibition DATST (DATST (jimsonweed); 900 g/ha): 100% | Percent inhibition GALAP ([1]; 30 g/ha): 100% | Percent inhibition GALAP ([1]; 100 g/ha): 70% | Percent inhibition GALAP ([1]; 300 g/ha): 100% | Percent inhibition GALAP ([1]; 900 g/ha): 100% | Percent inhibition LOLMG (LOLMG (annual ryegrass); 30 g/ha): 60% | Percent inhibition LOLMG (LOLMG (annual ryegrass); 100 g/ha): 100% | Percent inhibition LOLMG (LOLMG (annual ryegrass); 300 g/ha): 100% | Percent inhibition LOLMG (LOLMG (annual ryegrass); 900 g/ha): 100% | Percent inhibition AEGCY ([2]; 30 g/ha): 0% | Percent inhibition AEGCY ([2]; 100 g/ha): 20% | Percent inhibition AEGCY ([2]; 300 g/ha): 30% | Percent inhibition AEGCY ([2]; 900 g/ha): 40% | Post-emergence activity GR80, AGSST [3]: [empty] | Post-emergence activity GR80, AGRRE [4]: [empty] | Percent inhibition HORVX (barley (HORVX); 30 g/ha): 0% | Percent inhibition HORVX (barley (HORVX); 100 g/ha): 0% | Percent inhibition HORVX (barley (HORVX); 300 g/ha): 10% | Percent inhibition HORVX (barley (HORVX); 900 g/ha): 40%

CCN(CC)C(=O)n1cnc(S(=O)(=O)C(F)(F)SCc2ccccc2)n1 [Example 10]
Percent inhibition DATST (DATST (jimsonweed); 10 g/ha): 0% | Percent inhibition DATST (DATST (jimsonweed); 30 g/ha): 0% | Percent inhibition DATST (DATST (jimsonweed); 100 g/ha): 0% | Percent inhibition DATST (DATST (jimsonweed); 300 g/ha): 20% | Percent inhibition DATST (DATST (jimsonweed); 900 g/ha): 100% | Percent inhibition GALAP ([1]; 10 g/ha): 0% | Percent inhibition GALAP ([1]; 30 g/ha): 0% | Percent inhibition GALAP ([1]; 100 g/ha): 80% | Percent inhibition GALAP ([1]; 300 g/ha): 50% | Percent inhibition GALAP ([1]; 900 g/ha): 100% | Percent inhibition LOLMG (LOLMG (annual ryegrass); 10 g/ha): 0% | Percent inhibition LOLMG (LOLMG (annual ryegrass); 30 g/ha): 0% | Percent inhibition LOLMG (LOLMG (annual ryegrass); 100 g/ha): 65% | Percent inhibition LOLMG (LOLMG (annual ryegrass); 300 g/ha): 100% | Percent inhibition LOLMG (LOLMG (annual ryegrass); 900 g/ha): 99% | Percent inhibition AEGCY ([2]; 10 g/ha): 0% | Percent inhibition AEGCY ([2]; 30 g/ha): 0% | Percent inhibition AEGCY ([2]; 100 g/ha): 20% | Percent inhibition AEGCY ([2]; 300 g/ha): 30% | Percent inhibition AEGCY ([2]; 900 g/ha): 20% | Post-emergence activity GR80, AGSST [3]: [empty] | Post-emergence activity GR80, AGRRE [4]: [empty] | Percent inhibition HORVX (barley (HORVX); 10 g/ha): 0% | Percent inhibition HORVX (barley (HORVX); 30 g/ha): 0% | Percent inhibition HORVX (barley (HORVX); 100 g/ha): 0% | Percent inhibition HORVX (barley (HORVX); 300 g/ha): 0% | Percent inhibition HORVX (barley (HORVX); 900 g/ha): 20%

CCN(CC)C(=O)n1cnc(S(=O)(=O)C(F)(F)SCC(=O)OC)n1 [Example 11]
Percent inhibition DATST (DATST (jimsonweed); 10 g/ha): 0% | Percent inhibition DATST (DATST (jimsonweed); 30 g/ha): 0% | Percent inhibition DATST (DATST (jimsonweed); 100 g/ha): 20% | Percent inhibition DATST (DATST (jimsonweed); 300 g/ha): 20% | Percent inhibition DATST (DATST (jimsonweed); 900 g/ha): 80% | PPI activity (GR80) DATST (DATST (jimsonweed)): 100 g/ha | PPI activity GR80, GALAP [1]: 300 g/ha | Percent inhibition GALAP ([1]; 10 g/ha): 0% | Percent inhibition GALAP ([1]; 30 g/ha): 0% | Percent inhibition GALAP ([1]; 100 g/ha): 0% | Percent inhibition GALAP ([1]; 300 g/ha): 20% | Percent inhibition GALAP ([1]; 900 g/ha): 90% | PPI activity GR80, LOLMG (LOLMG (annual ryegrass)): [empty] | Percent inhibition LOLMG (LOLMG (annual ryegrass); 10 g/ha): 20% | Percent inhibition LOLMG (LOLMG (annual ryegrass); 30 g/ha): 40% | Percent inhibition LOLMG (LOLMG (annual ryegrass); 100 g/ha): 70% | Percent inhibition LOLMG (LOLMG (annual ryegrass); 300 g/ha): 99% | Percent inhibition LOLMG (LOLMG (annual ryegrass); 900 g/ha): 95% | PPI activity GR80, AEGCY [2]: [empty] | Percent inhibition AEGCY ([2]; 10 g/ha): 0% | Percent inhibition AEGCY ([2]; 30 g/ha): 0% | Percent inhibition AEGCY ([2]; 100 g/ha): 0% | Percent inhibition AEGCY ([2]; 300 g/ha): 0% | Percent inhibition AEGCY ([2]; 900 g/ha): 10% | Post-emergence activity GR80, AGSST [3]: [empty] | Post-emergence activity GR80, AGRRE [4]: [empty] | Percent inhibition HORVX (barley (HORVX); 10 g/ha): 0% | Percent inhibition HORVX (barley (HORVX); 30 g/ha): 0% | Percent inhibition HORVX (barley (HORVX); 100 g/ha): 0% | Percent inhibition HORVX (barley (HORVX); 300 g/ha): 0% | Percent inhibition HORVX (barley (HORVX); 900 g/ha): 10%

CCN(CC)C(=O)n1cnc(S(=O)(=O)C(F)(F)SCCOC)n1 [Example 13]
Percent inhibition DATST (DATST (jimsonweed); 10 g/ha): 0% | Percent inhibition DATST (DATST (jimsonweed); 30 g/ha): 30% | Percent inhibition DATST (DATST (jimsonweed); 100 g/ha): 50% | Percent inhibition DATST (DATST (jimsonweed); 300 g/ha): 90% | Percent inhibition DATST (DATST (jimsonweed); 900 g/ha): 100% | PPI activity (GR80) DATST (DATST (jimsonweed)): 300 g/ha | PPI activity GR80, GALAP [1]: 300 g/ha | Percent inhibition GALAP ([1]; 10 g/ha): 0% | Percent inhibition GALAP ([1]; 30 g/ha): 30% | Percent inhibition GALAP ([1]; 100 g/ha): 0% | Percent inhibition GALAP ([1]; 300 g/ha): 40% | Percent inhibition GALAP ([1]; 900 g/ha): 100% | PPI activity GR80, LOLMG (LOLMG (annual ryegrass)): * (activity observed, at least at highest rate, but <80% inhibition) | Percent inhibition LOLMG (LOLMG (annual ryegrass); 10 g/ha): 20% | Percent inhibition LOLMG (LOLMG (annual ryegrass); 30 g/ha): 60% | Percent inhibition LOLMG (LOLMG (annual ryegrass); 100 g/ha): 70% | Percent inhibition LOLMG (LOLMG (annual ryegrass); 300 g/ha): 100% | Percent inhibition LOLMG (LOLMG (annual ryegrass); 900 g/ha): 100% | PPI activity GR80, AEGCY [2]: [empty] | Percent inhibition AEGCY ([2]; 10 g/ha): 0% | Percent inhibition AEGCY ([2]; 30 g/ha): 0% | Percent inhibition AEGCY ([2]; 100 g/ha): 0% | Percent inhibition AEGCY ([2]; 300 g/ha): 60% | Percent inhibition AEGCY ([2]; 900 g/ha): 40% | Post-emergence activity GR80, AGSST [3]: [empty] | Post-emergence activity GR80, AGRRE [4]: [empty] | Percent inhibition HORVX (barley (HORVX); 10 g/ha): 0% | Percent inhibition HORVX (barley (HORVX); 30 g/ha): 0% | Percent inhibition HORVX (barley (HORVX); 100 g/ha): 20% | Percent inhibition HORVX (barley (HORVX); 300 g/ha): 10% | Percent inhibition HORVX (barley (HORVX); 900 g/ha): 40%
